Measurements taken from ChEMBL document CHEMBL3407459, “Synthesis and antimicrobial activity of novel structural hybrids of benzofuroxan and benzothiazole derivatives” (2015).

Tests used:
Escherichia coli [1] = assay: Antibacterial activity against Escherichia coli MG1655 harboring pGrpE-lux assessed as maximum induction factor at 10^-11 M after 120 mins by luminometric analysis; assay type: functional, K-12 substr. MG1655
[2] = Activation of quorum sensing system luxR in Escherichia coli MG1655 harboring pVFR1-lux assessed as maximum induction factor at 10^-11 M after 120 mins by luminometric analysis; details: Escherichia coli str. K-12 substr. MG1655
Escherichia coli [3] = assay: Antibacterial activity against Escherichia coli MG1655 harboring pKatG-lux assessed as maximum induction factor at 10^-12 M after 120 mins by luminometric analysis; assay type: functional, K-12 substr. MG1655
Escherichia coli [4] = assay: Antibacterial activity against Escherichia coli MG1655 harboring pGrpE-lux assessed as maximum induction factor at 10^-12 M after 120 mins by luminometric analysis; assay type: functional, K-12 substr. MG1655
Escherichia coli [5] = assay: Antibacterial activity against Escherichia coli MG1655 harboring pIbpA-lux assessed as maximum induction factor at 10^-12 M after 120 mins by luminometric analysis; assay type: functional, K-12 substr. MG1655
Escherichia coli [6] = assay: Antibacterial activity against Escherichia coli MG1655 harboring pKatG-lux assessed as maximum induction factor at 10^-13 M after 120 mins by luminometric analysis; assay type: functional, K-12 substr. MG1655
Escherichia coli [7] = assay: Antibacterial activity against Escherichia coli MG1655 harboring pRecA-lux assessed as maximum induction factor at 10^-13 M after 120 mins by luminometric analysis; assay type: functional, K-12 substr. MG1655
Escherichia coli [8] = assay: Antibacterial activity against Escherichia coli MG1655 harboring pGrpE-lux assessed as maximum induction factor at 10^-13 M after 120 mins by luminometric analysis; assay type: functional, K-12 substr. MG1655
Escherichia coli [9] = assay: Antibacterial activity against Escherichia coli MG1655 harboring pIbpA-lux assessed as maximum induction factor at 10^-13 M after 120 mins by luminometric analysis; assay type: functional, K-12 substr. MG1655
Escherichia coli [10] = assay: Antibacterial activity against Escherichia coli MG1655 harboring pKatG-lux assessed as maximum induction factor at 10^-14 M after 120 mins by luminometric analysis; assay type: functional, K-12 substr. MG1655
Escherichia coli [11] = assay: Antibacterial activity against Escherichia coli MG1655 harboring pIbpA-lux assessed as maximum induction factor at 10^-14 M after 120 mins by luminometric analysis; assay type: functional, K-12 substr. MG1655
Vibrio sp. [12] = assay: Antibacterial activity against Vibrio aqamarinus VKPM B-11245 assessed as toxicity index at 10^-3 M measured for 2 hrs by luminometric analysis; assay type: functional
Vibrio sp. [13] = assay: Antibacterial activity against Vibrio aqamarinus VKPM B-11245 assessed as toxicity index at 10^-9 M measured for 2 hrs by luminometric analysis; assay type: functional
Vibrio sp. [14] = assay: Antibacterial activity against Vibrio aqamarinus VKPM B-11245 assessed as toxicity index at 10^-10 M measured for 2 hrs by luminometric analysis; assay type: functional
Escherichia coli [15] = assay: Antibacterial activity against Escherichia coli MG1655 harboring pXen7 assessed as toxicity index at 10^-6 M measured for 2 hrs by luminometric analysis; assay type: functional, K-12 substr. MG1655
Escherichia coli [16] = assay: Antibacterial activity against Escherichia coli MG1655 harboring pXen7 assessed as toxicity index at 10^-8 M measured for 2 hrs by luminometric analysis; assay type: functional, K-12 substr. MG1655
Escherichia coli [17] = assay: Antibacterial activity against Escherichia coli MG1655 harboring pXen7 assessed as toxicity index at 10^-12 M measured for 2 hrs by luminometric analysis; assay type: functional, K-12 substr. MG1655
Escherichia coli [18] = assay: Antibacterial activity against Escherichia coli MG1655 harboring pXen7 assessed as toxicity index at 10^-13 M measured for 2 hrs by luminometric analysis; assay type: functional, K-12 substr. MG1655
Escherichia coli [19] = assay: Antibacterial activity against Escherichia coli MG1655 harboring pRecA-lux assessed as maximum induction factor at 10^-3 M after 120 mins by luminometric analysis; assay type: functional, K-12 substr. MG1655
Escherichia coli [20] = assay: Antibacterial activity against Escherichia coli MG1655 harboring pIbpA-lux assessed as maximum induction factor at 10^-3 M after 120 mins by luminometric analysis; assay type: functional, K-12 substr. MG1655
[21] = Activation of quorum sensing system luxR in Escherichia coli MG1655 harboring pVFR1-lux assessed as maximum induction factor at 10^-3 M after 120 mins by luminometric analysis; details: Escherichia coli str. K-12 substr. MG1655
Escherichia coli [22] = assay: Antibacterial activity against Escherichia coli MG1655 harboring pKatG-lux assessed as maximum induction factor at 10^-4 M after 120 mins by luminometric analysis; assay type: functional, K-12 substr. MG1655
Escherichia coli [23] = assay: Antibacterial activity against Escherichia coli MG1655 harboring pSoxS-lux assessed as maximum induction factor at 10^-6 M after 120 mins by luminometric analysis; assay type: functional, K-12 substr. MG1655
Escherichia coli [24] = assay: Antibacterial activity against Escherichia coli MG1655 harboring pIbpA-lux assessed as maximum induction factor at 10^-6 M after 120 mins by luminometric analysis; assay type: functional, K-12 substr. MG1655
Escherichia coli [25] = assay: Antibacterial activity against Escherichia coli MG1655 harboring pGrpE-lux assessed as maximum induction factor at 10^-7 M after 120 mins by luminometric analysis; assay type: functional, K-12 substr. MG1655
Escherichia coli [26] = assay: Antibacterial activity against Escherichia coli MG1655 harboring pIbpA-lux assessed as maximum induction factor at 10^-7 M after 120 mins by luminometric analysis; assay type: functional, K-12 substr. MG1655
[27] = Activation of quorum sensing system luxR in Escherichia coli MG1655 harboring pVFR1-lux assessed as maximum induction factor at 10^-8 M after 120 mins by luminometric analysis; details: Escherichia coli str. K-12 substr. MG1655
Escherichia coli [28] = assay: Antibacterial activity against Escherichia coli MG1655 harboring pRecA-lux assessed as maximum induction factor at 10^-10 M after 120 mins by luminometric analysis; assay type: functional, K-12 substr. MG1655
[29] = Activation of quorum sensing system luxR in Escherichia coli MG1655 harboring pVFR1-lux assessed as maximum induction factor at 10^-10 M after 120 mins by luminometric analysis; details: Escherichia coli str. K-12 substr. MG1655

## O=[N+]([O-])c1cc([N+](=O)[O-])c2no[n+]([O-])c2c1Sc1nc2ccccc2s1
Escherichia coli [1]
  Activity: 1.05
[2]
  Activity: 1.51
Escherichia coli [3]
  Activity: 1.12
Escherichia coli [4]
  Activity: 1.31
Escherichia coli [5]
  Activity: 1.25
Escherichia coli [6]
  Activity: 0.87
Escherichia coli [7]
  Activity: 0.98
Escherichia coli [8]
  Activity: 0.96
Escherichia coli [9]
  Activity: 1.37
Escherichia coli [10]
  Activity: 0.78
Escherichia coli [11]
  Activity: 1.46
Vibrio sp. [12]
  Activity: 98.83
Vibrio sp. [13]
  Activity: 0
Vibrio sp. [14]
  Activity: 11.61
Escherichia coli [15]
  Activity: 10.3
Escherichia coli [16]
  Activity: 7.28
Escherichia coli [17]
  Activity: 10.52
Escherichia coli [18]
  Activity: 0
Escherichia coli [19]
  Activity: 0.25
Escherichia coli [20]
  Activity: 1.19
[21]
  Activity: 1.68
Escherichia coli [22]
  Activity: 0.3
Escherichia coli [23]
  Activity: 1.28
Escherichia coli [24]
  Activity: 1.28
Escherichia coli [25]
  Activity: 1.02
Escherichia coli [26]
  Activity: 1.12
[27]
  Activity: 2.77
Escherichia coli [28]
  Activity: 1
[29]
  Activity: 3.59
